According to patent US7772425B2, “Vitamin D receptor modulators” (Eli Lilly and Company, priority 2002, dated 2010):
Several values for one entry are separate records, joined by “and”; a condition that tells them apart may be missing. Equal entries are not always repeated.

Experiments:
rat osteocalcin promoter = assay: OCN (osteocalcin) promoter assay in RG-15 (ROS 17/2.8) cells; format: cell-based; details: 48 hr treatment, luciferase
Outline: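 Rat osteoblast-like RG-15 (ROS 17/2.8) cells stably carrying a luciferase reporter driven by the osteocalcin promoter, treated with compounds in DMSO (0.01% v/v final) in medium with 2% FBS. After 48 hr at 37 °C, cells were lysed and luciferase activity measured.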

[1] = test system: KERtr cells (Human skin keratinocyte); assay: Keratinocyte proliferation assay; format: cell-based; details: 72 hr, BrdU incorporation, read-out: Kera. Prolif. IC50
female DBF mice = assay: Mouse hypercalcemia assay; format: in vivo; details: orally via gavage for 6 days; serum ionized calcium 6 hours after last dosing
Excerpt: 4. The Mouse Hypercalcemia Assay
(4) Materials and Method for The Mouse Hypercalcemia Assay: […]

IL-10 = assay: human IL-10 induction assay in PBMCs; format: cell-based; details: Homo sapiens, PBMC, TPA/PHA treated human PBMCs, IL-10 immunoassay of supernatant
Excerpt: The evaluation of the novel compounds of the invention for psoriasis is done using the Keratinocyte Proliferation Assay in combination with other assays that measure inhibition of IL-2 production and stimulation of IL-10 production in peripheral blood mononuclear cells (PBMCs).
6. The IL-10 Induction Assay
This is an in vitro efficacy assay for psoriasis, abscess and adhesion. Psoriasis involves both keratinocytes and immune cells. IL-10 is a unique cytokine because it is anti-inflammatory and immunosuppressive. This assay tells us whether a VDRM is able to function as an agonist in PBMCs (primary blood mononuclear cells) or not. A lower EC50 value is desirable in this assay since a compound with a lower EC50 value will be a better agonist in PBMCs.
(6) Materials and Method for human IL-10 Induction Assay:
Isolation of peripheral blood mononuclear cells (PBMCs):
• A. Collect 50 ml of human blood and dilute with media, RPMI-1640. • B. Prepare sterile tubes with ficol. • C. Add diluted blood to tubes. • D. Centrifuge. • E. Discard the top layer and collect the cells from middle layer. • F. Divide all cells into four tubes and add media. • G. Centrifuge. • H. Aspirate off media and resuspend. • I. Collect all cells • J. Centrifuge. at 1200 rpm for 10 minutes. • K. Resuspend in RPMI-1640 with 2% FBS and count cells Stimulation of PBMC: • L. Prepare TPA in DMSO. • M. Dissolve PHA in water. • N. Plate TPA/PHA treated PBMCs in well plates. • O. Incubate. Treatment: • P. Prepare all compound dilutions in plain RPMI-1640 media. • Q. Add diluted compound. • R. Incubate. Sample Collection and assay: • S. Remove all the cells by centrifugation and assay the supernatant for IL-10 by immunoassay. • 1) T. Perform IL-10 assay using anti-human IL-10 antibody coated beads, as described by the manufacturer (Linco Research Inc., St. Charles, Mo.).

CCC(CC)(c1ccc(OC(C)C(O)C(C)(C)C)c(C)c1)c1ccc(C(=O)N[C@H](C)C(=O)O)c(C)c1 (stereo partly shown) [Ex. 46, (D)-2-(4-{1-ethyl-1-[4-(2-hydroxy-1,3,3-trimethyl-butoxy)-3-methyl-phenyl]-propyl}-2-methyl-benzoylamino)-propionic acid]
EC50 (rat osteocalcin promoter): 0.002 µM and 0.003 µM | IC50 [1]: 0.021 µM | Mouse Hypercal (female DBF mice): 3000 µg/kg/day | IC50 (IL-10): 0.033 µM
